The record followed here is patent publication US8232406B2, “c-MET protein kinase inhibitors” (Vertex Pharmaceuticals Incorporated, priority 2006, dated 2012).

The assay deals with c-MET (Homo sapiens, UniProt P08581). Briefly: Ki determination for the inhibition of c-MET (standard radiometric 33P-ATP kinase assay, polyE4Y substrate). The note with it: 1.0 nM c-Met, 35 μM ATP, 0.5 mg/mL polyE4Y, 20 min; competitive tight-binding fit. In kind it is biochemical. The procedure: Ki Determination for the Inhibition of c-MET
Sequence of c-MET (P08581 25-1390): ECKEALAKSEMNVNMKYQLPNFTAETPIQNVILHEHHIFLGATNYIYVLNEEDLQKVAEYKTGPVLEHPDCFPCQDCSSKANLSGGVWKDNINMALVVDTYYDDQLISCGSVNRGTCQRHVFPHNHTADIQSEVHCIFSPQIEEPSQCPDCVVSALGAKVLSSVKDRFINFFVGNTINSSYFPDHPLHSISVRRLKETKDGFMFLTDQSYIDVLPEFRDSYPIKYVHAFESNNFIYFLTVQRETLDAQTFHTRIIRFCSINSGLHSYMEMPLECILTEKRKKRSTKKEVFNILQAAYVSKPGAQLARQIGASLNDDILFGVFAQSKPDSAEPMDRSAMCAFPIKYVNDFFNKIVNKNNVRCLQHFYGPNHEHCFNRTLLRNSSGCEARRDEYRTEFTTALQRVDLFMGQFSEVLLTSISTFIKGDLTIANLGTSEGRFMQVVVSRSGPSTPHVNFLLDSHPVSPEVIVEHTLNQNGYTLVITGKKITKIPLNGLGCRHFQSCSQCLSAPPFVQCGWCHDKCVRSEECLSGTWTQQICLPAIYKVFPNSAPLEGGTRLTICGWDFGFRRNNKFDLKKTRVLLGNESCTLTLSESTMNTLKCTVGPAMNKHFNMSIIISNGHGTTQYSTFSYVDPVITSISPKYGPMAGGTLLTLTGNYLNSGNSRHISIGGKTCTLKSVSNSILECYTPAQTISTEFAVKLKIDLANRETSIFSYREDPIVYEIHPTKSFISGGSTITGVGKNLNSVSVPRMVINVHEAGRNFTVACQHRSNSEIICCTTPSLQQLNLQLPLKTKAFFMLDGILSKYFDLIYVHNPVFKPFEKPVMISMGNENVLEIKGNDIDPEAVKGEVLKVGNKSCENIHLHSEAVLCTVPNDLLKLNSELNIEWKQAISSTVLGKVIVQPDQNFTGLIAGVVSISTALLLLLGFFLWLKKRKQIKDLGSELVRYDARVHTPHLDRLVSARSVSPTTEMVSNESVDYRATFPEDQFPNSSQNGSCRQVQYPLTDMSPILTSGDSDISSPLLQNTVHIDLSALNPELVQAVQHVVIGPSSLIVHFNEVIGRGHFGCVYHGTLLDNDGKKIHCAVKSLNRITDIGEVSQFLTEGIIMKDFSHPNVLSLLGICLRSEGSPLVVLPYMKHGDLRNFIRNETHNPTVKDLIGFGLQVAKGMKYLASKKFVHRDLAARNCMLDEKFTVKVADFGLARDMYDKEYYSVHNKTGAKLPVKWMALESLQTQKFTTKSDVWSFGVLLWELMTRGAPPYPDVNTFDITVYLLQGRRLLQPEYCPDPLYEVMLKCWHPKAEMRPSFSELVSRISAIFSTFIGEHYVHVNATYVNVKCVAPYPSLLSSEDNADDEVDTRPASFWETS
Compounds of the invention were screened for their ability to inhibit c-MET kinase activity using a standard radiometric assay. Briefly, in this kinase assay the transfer of the terminal ^33P-phosphate in ^33P-ATP to substrate polyE4Y is interrogated. The assay was carried out in 96-well plates to a final volume of 100 μL per well containing 1.0 nM c-Met, 100 mM HEPES (pH 7.5), 10 mM MgCl2, 25 mM NaCl, 0.01% BSA, 1 mM DTT, 0.5 mg/mL polyE4Y, and 35 μM ATP. Accordingly, compounds of the invention were dissolved in DMSO to make 10 mM initial stock solutions. Serial dilutions in DMSO were then made to obtain the final solutions for the assay. A 1.5 μL aliquot of DMSO or inhibitor in DMSO was added to each well. The reaction was initiated by the addition of ^33P-ATP and polyE4Y (obtained from Sigma). After 20 min, the reaction was quenched with 50 μL of 30% trichloroacetic acid (TCA) containing 4 mM ATP. The reaction mixture was transferred to the 0.66 mm GF filter plates (Corning) and washed three times with 5% TCA. Following the addition of 50 μL of Ultimate Gold™ high efficiency scintillant (Packard Bioscience), the samples were counted in a Packard TopCount NXT Microplate Scintillation and Luminescence Counter (Packard BioScience). The Ki values were calculated using Microsoft Excel Solver macros to fit the data to the kinetic model for competitive tight-binding inhibition.
As to `Nc1ncc(-c2ccc(CN3CCC(CO)CC3)cc2)cc1-c1nnnn1-c1cccc(Cl)c1Cl` [I-A-96], the Ki (usually the dissociation constant of the complex between target and ligand, obtained from inhibition or displacement) was ≤ 100 nM.

On to `Nc1ncc(-c2ccc(CN3CCC(O)CC3)cc2)cc1-c1nnnn1-c1cccc(Cl)c1Cl` [I-A-97], for which the Ki was ≤ 100 nM.

In the case of `Nc1ncc(-c2ccc(CN3CCC(N4CCCCC4)CC3)cc2)cc1-c1nnnn1-c1cccc(Cl)c1Cl` [I-A-98], the inhibitory constant (Ki) was ≤ 100 nM. Next, `Nc1ncc(-c2ccc(CN3CCCC(CO)C3)cc2)cc1-c1nnnn1-c1cccc(Cl)c1Cl` (centres unmarked) [I-A-99]: ≤ 100 nM; `CC(c1ccc(-c2cnc(N)c(-c3nnnn3-c3cccc(Cl)c3Cl)c2)cc1)N(C)C` (centres unmarked) [I-A-100]: ≤ 100 nM.

`COCCN(CCOC)Cc1ccc(-c2cnc(N)c(-c3nnnn3-c3cccc(Cl)c3Cl)c2)cc1` [I-A-101] returned a Ki of 100 to 1000 nM. Next, `CN(CCc1ccccn1)Cc1ccc(-c2cnc(N)c(-c3nnnn3-c3cccc(Cl)c3Cl)c2)cc1` [I-A-102]: 100 to 1000 nM; `CC1CN(Cc2ccc(-c3cnc(N)c(-c4nnnn4-c4cccc(Cl)c4Cl)c3)cc2)CC(C)O1` (centres unmarked) [I-A-103]: 100 to 1000 nM. For `Nc1ncc(-c2ccc(CN3CCN(CCO)CC3)cc2)cc1-c1nnnn1-c1cccc(Cl)c1Cl` [I-A-104] the value was ≤ 100 nM; for `Nc1ncc(-c2ccc(CN3CCN(Cc4ccncc4)CC3)cc2)cc1-c1nnnn1-c1cccc(Cl)c1Cl` [I-A-105], 100 to 1000 nM; for `CC1CN(Cc2ccc(-c3cnc(N)c(-c4nnnn4-c4cccc(Cl)c4Cl)c3)cc2)CCN1` (centres unmarked) [I-A-106], ≤ 100 nM. Take `CN(Cc1ccc(-c2cnc(N)c(-c3nnnn3-c3cccc(Cl)c3Cl)c2)cc1)Cc1cccnc1` [I-A-107]: the Ki fell in the range of 100 to 1000 nM. For `NCN1CCN(Cc2ccc(-c3cnc(N)c(-c4nnnn4-c4cccc(Cl)c4Cl)c3)cc2)CC1` [I-A-108] the value was ≤ 100 nM; for `Nc1ncc(-c2cccc(CN3CCCC3)c2)cc1-c1nnnn1-c1cccc(Cl)c1Cl` [I-A-109], ≤ 100 nM; for `COc1ccncc1-c1cnc(N)c(-c2nncn2-c2cccc(F)c2F)c1` [I-A-110], 100 to 1000 nM. In turn, `Nc1ncc(-c2ccc(F)c(Cl)c2)cc1-c1nncn1-c1cccc(F)c1F` [I-A-111] yielded an inhibition constant (Ki) of 100 to 1000 nM. Next, `Nc1ncc(-c2ccc(F)cc2)cc1-c1nncn1-c1cccc(F)c1F` [I-A-112]: 100 to 1000 nM.

The molecule `N#Cc1ccc(-c2cnc(N)c(-c3nncn3-c3cccc(F)c3F)c2)cc1` [I-A-113] displayed a Ki of 100 to 1000 nM.

As for `Nc1ncc(-c2ccc(Cl)cc2)cc1-c1nncn1-c1cccc(F)c1F` [I-A-114], the inhibitory constant (Ki) lay in the range of 100 to 1000 nM. For `Nc1ncc(-c2cccc(C(F)(F)F)c2)cc1-c1nncn1-c1cccc(F)c1F` [I-A-116] the value was 100 to 1000 nM.

`Nc1ncc(-c2ccc(CN3CCC[C@@H]3CN3CCCC3)cc2)cc1-c1nnnn1-c1cccc(Cl)c1Cl` [I-A-118]: the Ki was ≤ 100 nM. As for `Nc1ncc(-c2ccc(CN3CC[C@@H](O)C3)cc2)cc1-c1nnnn1-c1cccc(Cl)c1Cl` [I-A-119], the Ki is ≤ 100 nM. Next, `Nc1ncc(-c2ccc(CN3CC[C@H](O)C3)cc2)cc1-c1nnnn1-c1cccc(Cl)c1Cl` [I-A-120]: ≤ 100 nM; `NC(=O)[C@@H]1CCCN1Cc1ccc(-c2cnc(N)c(-c3nnnn3-c3cccc(Cl)c3Cl)c2)cc1` [I-A-121]: ≤ 100 nM; `Nc1ncc(-c2ccc(CN3CCC[C@H]3CO)cc2)cc1-c1nnnn1-c1cccc(Cl)c1Cl` [I-A-122]: ≤ 100 nM.

As to `CN(C)Cc1cccc(-c2cnc(N)c(-c3nnnn3-c3cccc(Cl)c3Cl)c2)c1` [I-A-123], the Ki is ≤ 100 nM. Next, `CN(C)CCNC(=O)c1ccc(-c2cnc(N)c(-c3nnnn3-c3cccc(Cl)c3Cl)c2)cc1` [I-A-124]: ≤ 100 nM; `CN(C)CCCNC(=O)c1ccc(-c2cnc(N)c(-c3nnnn3-c3cccc(Cl)c3Cl)c2)cc1` [I-A-125]: ≤ 100 nM; `CC(=O)Nc1ccc(-c2cnc(N)c(-c3nnnn3-c3cccc(F)c3F)c2)c(F)c1` [I-A-126]: ≤ 100 nM. For `CC(=O)Nc1ccc(-c2cnc(N)c(-c3nnnn3-c3cccc(F)c3F)c2)cc1F` [I-A-127] the value was ≤ 100 nM. For `Nc1ncc(-c2ccc(-n3ccnc3)nc2)cc1-c1nnnn1-c1cccc(F)c1F` [I-A-128] the value was ≤ 100 nM.

For the molecule `CC(N)c1ccc(-c2cnc(N)c(-c3nnnn3-c3cccc(F)c3F)c2)cn1` (centres unmarked) [I-A-129], the Ki is ≤ 100 nM. Regarding `Nc1ncc(-c2ccc(CN3CC[C@@H](O)C3)cc2)cc1-c1nnnn1-c1cccc(F)c1F` [I-A-130], the Ki was ≤ 100 nM.

`Nc1ncc(-c2ccc(CN3CC[C@H](O)C3)cc2)cc1-c1nnnn1-c1cccc(F)c1F` [I-A-131]: the Ki was ≤ 100 nM. For `NC(=O)[C@@H]1CCCN1Cc1ccc(-c2cnc(N)c(-c3nnnn3-c3cccc(F)c3F)c2)cc1` [I-A-132] the value was ≤ 100 nM. Next, `Nc1ncc(-c2ccc(CN3CCC[C@H]3CO)cc2)cc1-c1nnnn1-c1cccc(F)c1F` [I-A-133]: ≤ 100 nM. Next, `Nc1ncc(-c2ccc(CN3CCCCC3)cc2)cc1-c1nnnn1-c1cccc(F)c1F` [I-A-134]: ≤ 100 nM; `CN(C)CCNC(=O)c1ccc(-c2cnc(N)c(-c3nnnn3-c3cccc(F)c3F)c2)cc1` [I-A-135]: ≤ 100 nM; `CN(C)CCCNC(=O)c1ccc(-c2cnc(N)c(-c3nnnn3-c3cccc(F)c3F)c2)cc1` [I-A-136]: ≤ 100 nM. Take `Nc1ncc(-c2ccc(C(=O)NC3CC3)cc2)cc1-c1nnnn1-c1cccc(F)c1F` [I-A-137]: the Ki is ≤ 100 nM. For `CC(=O)Nc1ccc(-c2cnc(N)c(-c3nnnn3-c3cccc(F)c3F)c2)cc1` [I-A-138] the value was ≤ 100 nM. For `CC(=O)Nc1cccc(-c2cnc(N)c(-c3nnnn3-c3cccc(F)c3F)c2)c1` [I-A-139] the value was ≤ 100 nM; for `CCNC(=O)Nc1nc2cc(-c3cnc(N)c(-c4nnnn4-c4cccc(F)c4F)c3)c(F)cc2[nH]1` [I-A-140], 100 to 1000 nM.

`Nc1nc2cc(-c3cnc(N)c(-c4nnnn4-c4cccc(F)c4F)c3)c(F)cc2[nH]1` [I-A-141]: the Ki is ≤ 100 nM.

Regarding `CCNC(=O)Nc1nc2cc(-c3cnc(N)c(-c4nnnn4-c4cccc(F)c4F)c3)c(OC)cc2[nH]1` [I-A-142], the Ki was 100 to 1000 nM.

Regarding `Nc1ncc(-c2ccsc2)cc1-c1nnnn1-c1cccc(F)c1F` [I-A-143], the Ki is ≤ 100 nM. Next, `Nc1ncc(-c2ccc(O)cc2)cc1-c1nnnn1-c1cccc(F)c1F` [I-A-144]: ≤ 100 nM; `Nc1ncc(-c2ccccc2O)cc1-c1nnnn1-c1cccc(F)c1F` [I-A-145]: ≤ 100 nM; `CCN(CCO)Cc1ccc(-c2cnc(N)c(-c3nnnn3-c3cccc(F)c3F)c2)cc1` [I-A-146]: ≤ 100 nM. Next, `CN(C)C1CCN(Cc2ccc(-c3cnc(N)c(-c4nnnn4-c4cccc(F)c4F)c3)cc2)C1` (centres unmarked) [I-A-147]: ≤ 100 nM; `CN(CCC#N)Cc1ccc(-c2cnc(N)c(-c3nnnn3-c3cccc(F)c3F)c2)cc1` [I-A-148]: ≤ 100 nM. For `CCN(C)Cc1ccc(-c2cnc(N)c(-c3nnnn3-c3cccc(F)c3F)c2)cc1` [I-A-149] the value was ≤ 100 nM; for `CC(C)CN(C)Cc1ccc(-c2cnc(N)c(-c3nnnn3-c3cccc(F)c3F)c2)cc1` [I-A-150], ≤ 100 nM; for `Nc1ncc(-c2ccc(CNC3CCC3)cc2)cc1-c1nnnn1-c1cccc(F)c1F` [I-A-151], ≤ 100 nM. On to `C[C@H](c1ccc(-c2cnc(N)c(-c3nnnn3-c3cccc(F)c3F)c2)cc1)N(C)C` [I-A-152], for which the Ki was ≤ 100 nM. For `C[C@@H](N)c1ccc(-c2cnc(N)c(-c3nnnn3-c3cccc(F)c3F)c2)cc1` [I-A-153] the value was ≤ 100 nM; for `CN(C)Cc1ccc(-c2cnc(N)c(-c3nnnn3-c3cccc(F)c3F)c2)cn1` [I-A-154], 100 to 1000 nM. Next, `NCc1ccc(-c2cnc(N)c(-c3nnnn3-c3cccc(F)c3F)c2)cn1` [I-A-155]: 100 to 1000 nM. For `CCCN(CCC)Cc1ccc(-c2cnc(N)c(-c3nnnn3-c3cccc(F)c3F)c2)cc1` [I-A-156] the value was ≤ 100 nM; for `Nc1ncc(-c2ccc(CC3(O)CCNCC3)cc2)cc1-c1nnnn1-c1cccc(F)c1F` [I-A-157], ≤ 100 nM. As for `Nc1ncc(C2=CCC(N)CC2)cc1-c1nnnn1-c1cccc(F)c1F` (centres unmarked) [I-A-158], the Ki is ≤ 100 nM. Next, `CN(C)CCCN(C)S(=O)(=O)c1ccc(-c2cnc(N)c(-c3nnnn3-c3cccc(F)c3F)c2)cc1` [I-A-159]: ≤ 100 nM; `Nc1ncc(-c2ccc(NC(=O)CN3CCC[C@H]3CO)cc2)cc1-c1nnnn1-c1cccc(F)c1F` [I-A-160]: 100 to 1000 nM. For `Nc1ncc(-c2ccc(NC(=O)c3cccs3)cc2)cc1-c1nnnn1-c1cccc(F)c1F` [I-A-161] the value was 100 to 1000 nM; for `Nc1ncc(-c2ccc(NC(=O)c3ccco3)cc2)cc1-c1nnnn1-c1cccc(F)c1F` [I-A-162], 100 to 1000 nM. Next, `Nc1ncc(-c2ccc(NC(=O)CN3CCOCC3)cc2)cc1-c1nnnn1-c1cccc(F)c1F` [I-A-163]: 100 to 1000 nM; `CN(C)Cc1ccc(-c2cnc(N)c(-c3nnnn3-c3cccc(F)c3F)c2)cc1F` [I-A-165]: ≤ 100 nM; `CC(=O)c1ccc(-c2cnc(N)c(-c3nnnn3-c3cccc(F)c3F)c2)s1` [I-A-179]: 100 to 1000 nM.
